Laboratory results published in patent publication US5025036A, “Catechol carboxylic acids” (Hoffmann-La Roche Inc., priority 1989, dated 1991).
Where a name gives a salt, the structure may show the parent alone.

Key:
[1] = biological target: T1, Δ^5 -lipoxygenase from rat basophilic leukemia (RBL-1) cells (Rattus norvegicus, UniProt P12527); assay: In vitro test for Δ^5-lipoxygenase inhibitors (5-HETE radioimmunoassay); format: biochemical; details: for IC50: RBL-1 5-LO, 5-HETE formation, read-out: Inhib. of Δ^5 Lipoxygenase IC50
T1 construct: The isolated cytosolic fraction was stored in liquid N2 for up to 8 weeks without loss of 5-LO enzyme activity; endogenous in cells; host or cells: RBL-1 cells (ATCC CRL 1378), 113,000×g supernatant (cytosol)
T1 sequence (P12527 1-673): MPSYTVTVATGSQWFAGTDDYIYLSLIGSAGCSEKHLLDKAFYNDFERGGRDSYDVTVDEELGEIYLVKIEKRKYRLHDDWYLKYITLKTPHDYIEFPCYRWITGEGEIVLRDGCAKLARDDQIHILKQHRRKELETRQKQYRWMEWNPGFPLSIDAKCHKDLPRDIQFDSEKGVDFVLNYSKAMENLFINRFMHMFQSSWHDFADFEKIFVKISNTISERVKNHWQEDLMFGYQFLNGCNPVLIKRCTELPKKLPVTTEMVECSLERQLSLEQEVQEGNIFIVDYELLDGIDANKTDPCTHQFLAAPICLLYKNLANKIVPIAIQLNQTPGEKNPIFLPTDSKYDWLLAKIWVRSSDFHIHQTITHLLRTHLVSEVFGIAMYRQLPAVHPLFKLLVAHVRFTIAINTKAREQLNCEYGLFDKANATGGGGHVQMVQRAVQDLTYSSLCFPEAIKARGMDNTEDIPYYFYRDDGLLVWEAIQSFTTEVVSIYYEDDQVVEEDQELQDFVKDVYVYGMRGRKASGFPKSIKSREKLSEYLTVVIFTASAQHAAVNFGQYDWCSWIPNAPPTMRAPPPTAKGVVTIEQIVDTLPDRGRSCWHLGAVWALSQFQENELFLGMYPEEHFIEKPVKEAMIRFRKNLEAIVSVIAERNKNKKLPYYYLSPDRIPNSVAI
Procedure: RBL-1 cells (CRL 1378) were obtained from the American Type Culture Collection, Rockville, MD. DMEM and glutamine were purchased from Flow Labs, McLean, Va. FBS (Gibco, Grand Island, N.Y.) was heat-inactivated for 1 hour at 56° C. Reagents for protein determinations were obtained from Biorad, Rockville Center, N.Y. Arachidonic acid (approx. 99%), ATP (disodium salt), BHT, dextran (clinical grade), tetrasodium EDTA, gelatin, gentamycin sulfate solution, reduced glutathione, 1 M HEPES buffer, indomethacin, NaCl, reduced NADPH, Trizma 7.2, and Trizma 8.5 were purchased from Sigma Chemical, St. Louis, Mo. CaCL2 dihydrate, Norit A charcoal, and citric acid monohydrate were obtained from Fisher Scientific, Pittsburgh, Pa. […] A synthetic 5-HETE standard was supplied by Dr. M. Rosenberger, Dept. of Medicinal Chemistry, Hoffmann La-Roche, Nutley, N.J.; [see Corey, E. J., and Hashimoto, S. (1981) Tet. […] Approximately 7-9 days after thawing, RBL-1 cells growing in log phase were seeded at a density of 7500 viable cells/ml in a closed 89-liter spinner flask. […] RBL-1 cells were harvested by centrifugation at 4° C. at 1500×g for 10 minutes and were washed 3 times with ice cold 0.05M tris-hCl, pH 7.2, tetrasodium EDTA (buffer 1). The cells were washed last in 0.05M Tris-HCl containing 14 μM indomethacin, 1 mM glutathione, 1.5 mM NaCl, and 1 mM tetrasodium EDTA (buffer 2), resuspended at a density of 5×108'/ml approximately 10 ml) and disrupted manually at 4° C. using a 40 ml Dounce (type A pestle) homogenizer. After 5 minutes of homogenization, 95% cell lysis was confirmed by phase contrast microscopy. The broken cells were diluted 1:2 with buffer 2 and centrifuged at 12,380×g for 10 minutes at 4° C. to pellet cellular debris and granules. The 12,380×g supernatant was centrifuged at 113,000×g for 60 minutes to pellet microsomes. The high-speed supernatant (5.9±0.48 mg/ml protein) was frozen immediately in 1 ml aliquots using a dry ice/acetone bath. The isolated cytosolic fraction was stored in liquid N2 for up to 8 weeks without loss of 5-LO enzyme activity. Compounds were dissolved at 25 mM concentration in DMSO, then diluted to final concentrations using 95% ethanol. For a typical enzyme assay, the partially purified 5-LO preparation was preincubated with drug or vehicle for 10 minutes at 30° C. The assay tubes were then transferred at a 37° C. water bath where they received arachidonic acid (8.25 μM final concentration) to initiate 5-LO activity. […] The samples were immediately cooled on ice and neutralized by dilution with 0.05M Tris-HCl, pH 8.5, which contained 25 mg/1 BHT. A boiled cytosol control was placed at the end of each assay to emasure non-enzymatic oxidation of arachidonic acid. […] Under the assay conditions described, the 5-LO catalyzed the conversion of arachidonic acid to 5-HPETE which, as a consequence of peroxidase activity, was reduced to 5-HETE. A specific radioimmunoassay was employed to quantitate the amount (pmoles) of 5-HETE formed during the enzyme reaction. To prepare the immunogen, Dr. M. Rosenberger (Dept. of Medicinal Chemistry) converted the racemic 5-HETE lactone (Corey, E. J., and Hashimoto, S. (1981) Tet. Letters, 22, 299-302) to its hydrazine derivative. The hydrazide was conjugated to thiolated Keyhole Limpet Hemocyanin (Young, […]., and Rokach, J. (1982) Prostaglandins 23, 603-613) using N-ethyl-maleimide as previously described for LTB4 by (Young, R., N, Zomboni, R. and Rokach, J. 91983) Prostaglandins, 26, 605-613). New Zealand White rabbits received multiple intradermal injections on their backs with […] conjugate emulsified in complete Freund's adjuvant. A schedule of injections reported by Salmon (Salmon, J. A. (1978) Prostaglandins, 15, 383-397) was followed. After the monthly i.p. booster injections, blood was obtained from the marginal ear vein 5-7 days later and assessed for antibody titer. […]

Carrageenan pleurisy = assay: Carrageenan Pleurisy Test (In Vivo); set-up: species or system male Lewis rats; details: Rattus norvegicus, po; at 100 mg/kg p.o; read-out: Rat Carrageenan Pleurisy % Inhib. of Exudate Volume
Procedure: The animals utilized in these studies were male Lewis rats (Charles River Breeding Laboratories) weighing between 230-250 g. […] At 5 or 24 hours after CG injection, the rats were killed by decapitation, exsanguinated, and the pleural cavity exposed by cutting the ribs on both sides of the sternum. The exudate fluid was removed from the pleural cavity with disposable plastic pipettes and its volume quantitated. The pleural cavity was then washed once with phosphate buffered saline containing fetal bovine serum (1:1) and the washings combined with the exudate. The total number of cells in the pleural cavity was quantitated using a Coulter Counter (Model ZM) adjusted to exclude any contaminating RBC. (Published in "Plant Flavonoids in Biology & Medicine: Biochemical, Pharmacological and Structure-Activity Relationships" p. 231-242 (1986) Alan R. Liss, Inc.)

ear edema = assay: Mouse Ear Edema Test (In Vivo), arachidonic acid; set-up: species or system CD-1 male mice; details: topical, 1 h, at 1 mg topically
Excerpt: Invest. Dermatol. 80:48 (1983) and Hames, Opas and Bonney, "Arachidonic Acid Metabolites in Mouse Ear Edema" Advances in Inflammation Research, 11:57 (1986). […] CD-1 male mice weighing 15 to 25 g were employed, and they were designated as follows: (1) Control Group, in which no arachidonic acid or test compound was to be applied, (2) Arachidonic Acid-Treated Group, in which no test compound was to be applied, and (3) Treated Group, in which the test compound was to be applied first, followed by the application of arachidonic acid. In the case of the Group (3) animals, the test compound, dissolved in acetone, was applied to the dorsal surface of the right ear of the mouse with a 25-microliter pipettor, with the dose of the test compound being varied. After 0.5 hours in some cases and 4 hours in others, the arachidonic acid was topically applied in the same manner as above to the pretreated ear areas. In each case of arachidonic acid application, an amount of 0.5 mg dissolved in 25 microliters of acetone was used. After 1 hour, the mice were sacrificed by carbon dioxide inhalation. A 6 mm-diameter standard biopsy punch was used to obtain a uniform tissue sample from the ear of each mouse so treated, and the tissue samples were weighed to the nearest 0.1 mg. The percent inhibition of ear edema formation was calculated as follows: [formula]

Row | SMILES | inhibition at 0.1 µM ([1]; read-out: Inhib. of Δ^5 Lipoxygenase, % inhibition at 0.1 μM) [%] | inhibition in vivo at 100 mg/kg (Carrageenan pleurisy) [%] | inhibition in vivo at 1 mg (ear edema) [%] | IC50 [1] [nM]
1 | CCCc1c(OCCCCCCCCc2cccc(O)c2O)ccc(C(C)=O)c1O [1-[2-hydroxy-4-[8-(2,3-dihydroxyphenyl)octyloxy]-3-propylphenyl]ethanone] | 95 | 0 | 0 | –
2 | CCCc1c(OCCCCCCc2cccc(O)c2O)ccc(C(=O)OCCN(CC)CC)c1O [4-[6-(2,3-Dihydroxyphenyl)hexyloxy]-2-hydroxy-3-propylbenzoic acid [2-(diethylamino)ethyl]ester hydrochloride] | – | 42 | 48 | 670
3 | CCCc1cc(C(=O)O)cc(CCC)c1OCCCCCCc1cccc(O)c1O [4-[6-(2,3-Dihydroxyphenyl)hexyloxy]-3,5-dipropylbenzoic acid] | – | – | 59 | 460
4 | CCCc1cc(C(=O)O)ccc1OCCCCCCc1cccc(O)c1O [4-[6-(2,3-Dihydroxyphenyl)hexyloxy]-3-propylbenzoic acid] | – | 0 | 52 | 20
